The results in this text go back to ChEMBL document CHEMBL1130220, “Synthesis of willardiine and 6-azawillardiine analogs: pharmacological characterization on cloned homomeric human AMPA and kainate receptor subtypes” (J Med Chem, 1997).

One test concerns the target Glutamate receptor 4 (Homo sapiens, UniProt P48058). Kind of test: biochemical.
In test [1] the target is Glutamate receptor 1 (Rattus norvegicus, UniProt P19490). The test can be described thus: Potency on Ionotropic glutamate receptor AMPA in hippocampal neurons. It counts as functional, tissue-based, Hippocampus.
Glutamate receptor 1 (Rattus norvegicus, UniProt P19490), sequence (P19490 whole entry): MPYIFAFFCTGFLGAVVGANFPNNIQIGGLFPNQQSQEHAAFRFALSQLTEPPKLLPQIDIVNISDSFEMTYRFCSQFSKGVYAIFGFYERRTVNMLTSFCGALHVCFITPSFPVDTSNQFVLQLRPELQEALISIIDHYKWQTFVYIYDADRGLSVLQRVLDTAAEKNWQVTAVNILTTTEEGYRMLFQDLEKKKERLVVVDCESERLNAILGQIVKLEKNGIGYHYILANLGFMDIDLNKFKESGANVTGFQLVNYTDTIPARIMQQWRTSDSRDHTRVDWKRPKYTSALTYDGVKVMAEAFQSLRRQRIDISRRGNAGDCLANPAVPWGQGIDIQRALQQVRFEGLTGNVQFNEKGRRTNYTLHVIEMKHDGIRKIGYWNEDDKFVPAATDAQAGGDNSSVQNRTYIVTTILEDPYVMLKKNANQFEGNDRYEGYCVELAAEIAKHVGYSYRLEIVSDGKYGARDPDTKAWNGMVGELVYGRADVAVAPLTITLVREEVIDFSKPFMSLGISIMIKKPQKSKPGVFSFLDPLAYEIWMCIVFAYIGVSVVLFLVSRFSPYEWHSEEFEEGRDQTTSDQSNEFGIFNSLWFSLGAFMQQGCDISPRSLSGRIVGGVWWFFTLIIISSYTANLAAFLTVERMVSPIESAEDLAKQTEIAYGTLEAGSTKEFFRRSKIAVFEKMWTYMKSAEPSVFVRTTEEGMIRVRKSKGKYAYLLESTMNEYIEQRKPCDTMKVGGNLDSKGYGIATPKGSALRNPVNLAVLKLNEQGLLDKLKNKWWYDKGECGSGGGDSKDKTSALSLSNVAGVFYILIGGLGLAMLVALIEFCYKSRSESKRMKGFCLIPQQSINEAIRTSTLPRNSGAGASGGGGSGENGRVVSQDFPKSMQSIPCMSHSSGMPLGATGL
For test [2], the target named is Glutamate receptor ionotropic, kainate 3 (Rattus norvegicus, UniProt P42264). The test can be described thus: Potency on Ionotropic glutamate receptor kainate in dorsal root ganglion cells. It counts as functional, cell-based.
Glutamate receptor ionotropic, kainate 3, sequence (P42264 whole entry): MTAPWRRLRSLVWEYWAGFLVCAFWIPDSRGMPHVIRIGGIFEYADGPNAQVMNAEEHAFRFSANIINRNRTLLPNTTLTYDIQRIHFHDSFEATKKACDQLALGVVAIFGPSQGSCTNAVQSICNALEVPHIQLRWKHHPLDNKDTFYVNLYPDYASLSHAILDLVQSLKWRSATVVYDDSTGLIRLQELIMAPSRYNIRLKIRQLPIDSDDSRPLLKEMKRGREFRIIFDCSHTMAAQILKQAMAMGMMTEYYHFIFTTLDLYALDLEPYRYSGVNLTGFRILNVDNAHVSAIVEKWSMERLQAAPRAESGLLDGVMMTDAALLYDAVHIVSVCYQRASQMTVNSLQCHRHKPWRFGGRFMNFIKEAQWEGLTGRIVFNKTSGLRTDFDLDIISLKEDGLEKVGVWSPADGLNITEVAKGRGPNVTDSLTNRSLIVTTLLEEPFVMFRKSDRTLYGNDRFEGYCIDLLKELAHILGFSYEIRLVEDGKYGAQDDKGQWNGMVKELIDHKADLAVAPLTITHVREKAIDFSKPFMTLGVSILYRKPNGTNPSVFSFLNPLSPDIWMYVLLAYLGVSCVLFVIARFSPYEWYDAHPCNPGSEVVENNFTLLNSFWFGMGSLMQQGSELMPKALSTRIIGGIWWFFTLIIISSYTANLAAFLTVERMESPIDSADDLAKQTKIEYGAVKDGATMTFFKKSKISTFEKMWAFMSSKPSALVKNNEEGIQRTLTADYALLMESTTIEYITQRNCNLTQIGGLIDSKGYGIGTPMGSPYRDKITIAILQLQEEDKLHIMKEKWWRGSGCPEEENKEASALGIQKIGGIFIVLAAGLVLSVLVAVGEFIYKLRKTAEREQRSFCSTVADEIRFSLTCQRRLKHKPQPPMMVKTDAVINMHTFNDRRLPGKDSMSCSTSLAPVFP
In test [3] the target is Glutamate receptor 1 (Homo sapiens, UniProt P42261). Kind of test: biochemical.
Glutamate receptor 1 (Homo sapiens, UniProt P42261), sequence (P42261 whole entry): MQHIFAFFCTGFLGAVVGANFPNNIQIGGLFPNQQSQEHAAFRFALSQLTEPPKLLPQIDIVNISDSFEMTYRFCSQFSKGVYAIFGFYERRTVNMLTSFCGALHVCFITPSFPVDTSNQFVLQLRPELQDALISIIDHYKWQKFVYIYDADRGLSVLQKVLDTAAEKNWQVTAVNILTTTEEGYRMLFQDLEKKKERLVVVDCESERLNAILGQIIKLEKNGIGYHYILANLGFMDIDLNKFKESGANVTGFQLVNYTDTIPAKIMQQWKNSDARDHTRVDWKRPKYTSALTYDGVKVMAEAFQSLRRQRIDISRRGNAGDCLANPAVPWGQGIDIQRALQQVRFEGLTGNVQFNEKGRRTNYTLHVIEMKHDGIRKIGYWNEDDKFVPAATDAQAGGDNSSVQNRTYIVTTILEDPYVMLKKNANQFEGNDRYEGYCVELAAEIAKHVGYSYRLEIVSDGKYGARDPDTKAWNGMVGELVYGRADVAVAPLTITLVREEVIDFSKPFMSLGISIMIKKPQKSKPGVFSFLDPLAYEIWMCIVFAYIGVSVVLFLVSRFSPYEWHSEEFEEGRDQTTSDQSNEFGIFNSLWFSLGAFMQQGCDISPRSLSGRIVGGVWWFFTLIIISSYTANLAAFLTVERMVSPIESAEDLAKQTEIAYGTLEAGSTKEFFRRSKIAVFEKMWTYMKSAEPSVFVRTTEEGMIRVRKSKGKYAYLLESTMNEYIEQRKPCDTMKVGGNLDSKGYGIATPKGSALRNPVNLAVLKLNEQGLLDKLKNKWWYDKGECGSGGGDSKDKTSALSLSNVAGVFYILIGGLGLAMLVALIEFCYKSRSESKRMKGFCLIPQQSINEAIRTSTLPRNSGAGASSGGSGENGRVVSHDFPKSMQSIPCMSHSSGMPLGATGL
The next test deals with Glutamate receptor 2 (Homo sapiens, UniProt P42262). The test can be described thus: biochemical.
Glutamate receptor 2, sequence (P42262 whole entry): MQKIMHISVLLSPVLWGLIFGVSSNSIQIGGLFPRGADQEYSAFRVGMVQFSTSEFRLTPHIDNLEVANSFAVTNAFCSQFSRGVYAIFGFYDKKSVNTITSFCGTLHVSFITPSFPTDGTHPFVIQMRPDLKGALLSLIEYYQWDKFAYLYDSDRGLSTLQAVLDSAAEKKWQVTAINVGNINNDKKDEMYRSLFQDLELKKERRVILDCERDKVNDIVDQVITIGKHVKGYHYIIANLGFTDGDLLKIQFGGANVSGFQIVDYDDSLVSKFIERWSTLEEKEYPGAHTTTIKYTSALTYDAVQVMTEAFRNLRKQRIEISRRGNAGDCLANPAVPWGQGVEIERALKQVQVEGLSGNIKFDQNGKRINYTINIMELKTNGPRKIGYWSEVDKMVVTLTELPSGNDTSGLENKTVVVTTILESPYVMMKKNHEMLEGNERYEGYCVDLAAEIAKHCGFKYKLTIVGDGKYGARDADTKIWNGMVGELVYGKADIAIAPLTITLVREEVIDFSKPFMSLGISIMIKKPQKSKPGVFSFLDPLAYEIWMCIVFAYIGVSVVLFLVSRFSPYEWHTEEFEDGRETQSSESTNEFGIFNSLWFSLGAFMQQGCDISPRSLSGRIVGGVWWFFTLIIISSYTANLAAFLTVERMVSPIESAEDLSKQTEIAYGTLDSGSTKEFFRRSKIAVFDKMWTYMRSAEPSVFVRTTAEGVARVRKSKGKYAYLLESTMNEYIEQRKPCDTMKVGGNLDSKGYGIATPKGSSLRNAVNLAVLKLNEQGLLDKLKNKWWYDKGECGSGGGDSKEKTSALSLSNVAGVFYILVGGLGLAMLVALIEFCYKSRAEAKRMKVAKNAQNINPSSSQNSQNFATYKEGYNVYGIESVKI

Glutamate receptor 4, sequence (P48058 whole entry): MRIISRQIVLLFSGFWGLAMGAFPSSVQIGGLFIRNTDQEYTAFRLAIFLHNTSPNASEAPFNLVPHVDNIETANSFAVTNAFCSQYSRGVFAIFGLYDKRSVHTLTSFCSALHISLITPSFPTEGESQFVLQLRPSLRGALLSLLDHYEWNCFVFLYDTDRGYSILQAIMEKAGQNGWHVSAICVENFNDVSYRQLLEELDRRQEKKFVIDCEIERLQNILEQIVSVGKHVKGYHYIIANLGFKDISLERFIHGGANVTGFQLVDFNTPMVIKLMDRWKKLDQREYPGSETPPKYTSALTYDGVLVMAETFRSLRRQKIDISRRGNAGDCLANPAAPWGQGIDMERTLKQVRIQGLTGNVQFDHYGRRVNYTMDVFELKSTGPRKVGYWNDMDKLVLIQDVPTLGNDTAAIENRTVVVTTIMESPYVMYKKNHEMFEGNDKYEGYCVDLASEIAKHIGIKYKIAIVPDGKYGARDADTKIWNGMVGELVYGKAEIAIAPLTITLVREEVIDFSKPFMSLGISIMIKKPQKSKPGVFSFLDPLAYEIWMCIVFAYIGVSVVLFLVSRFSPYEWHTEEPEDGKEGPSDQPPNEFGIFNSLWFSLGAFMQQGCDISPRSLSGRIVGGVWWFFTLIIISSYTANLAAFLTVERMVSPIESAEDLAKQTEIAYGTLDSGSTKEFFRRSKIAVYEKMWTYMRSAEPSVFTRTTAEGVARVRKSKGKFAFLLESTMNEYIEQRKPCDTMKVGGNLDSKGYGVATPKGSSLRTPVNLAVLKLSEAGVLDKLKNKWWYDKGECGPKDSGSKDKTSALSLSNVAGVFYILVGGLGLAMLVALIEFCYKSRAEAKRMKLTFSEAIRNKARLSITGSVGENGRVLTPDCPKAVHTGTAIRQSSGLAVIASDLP

Consider `N[C@@H](Cn1cc(I)c(=O)[nH]c1=O)C(=O)O`, for which the Ki at Glutamate receptor 4 came to 972 nM; at Glutamate receptor 1 [3] it was 163 nM. Also, the EC50 at Glutamate receptor 1 [1] came out at 19200 nM; in test [2], 140 nM.
Turning to `N[C@@H](Cn1nc(I)c(=O)[nH]c1=O)C(=O)O`, the Ki at Glutamate receptor 4 is 19.9 nM; at Glutamate receptor 1 [3], 73.9 nM; at Glutamate receptor 2, 101 nM.
As to `N[C@@H](Cn1cc([N+](=O)[O-])c(=O)[nH]c1=O)C(=O)O`, the results for the Ki on Glutamate receptor 4 and at Glutamate receptor 1 [3] were 207 nM and 279 nM, respectively.
On to `N[C@@H](Cn1ncc(=O)[nH]c1=O)C(=O)O`, for which the Ki on Glutamate receptor 4 turned out to be 189 nM; at Glutamate receptor 1 [3] it was 163 nM; on Glutamate receptor 2, 461 nM.
In the same order, the values of `N[C@@H](Cn1nc(Br)c(=O)[nH]c1=O)C(=O)O` are 7.9 nM, 29 nM and 19.3 nM.
Regarding `N[C@@H](Cn1ccc(=O)[nH]c1=O)C(=O)O` [(S)-WILLARDIINE], the inhibitory constant (Ki) at Glutamate receptor 4 is 8850 nM; on Glutamate receptor 1 [3], 386 nM.
For `N[C@@H](Cn1cc(Br)c(=O)[nH]c1=O)C(=O)O` the same measures were 457 nM and 92 nM.
Turning to `Cc1nn(C[C@H](N)C(=O)O)c(=O)[nH]c1=O`, the results for the Ki at Glutamate receptor 4, on Glutamate receptor 1 [3] and at Glutamate receptor 2 were 89 nM, 240 nM and 372 nM, respectively.
As for `N[C@@H](Cn1nc(Cl)c(=O)[nH]c1=O)C(=O)O`, the Ki is 3.6 nM at Glutamate receptor 4, 7.1 nM on Glutamate receptor 1 [3] and 16.7 nM at Glutamate receptor 2.
For `N[C@@H](Cn1cc(Cl)c(=O)[nH]c1=O)C(=O)O`, the Ki at Glutamate receptor 4 turned out to be 451 nM; on Glutamate receptor 1 [3] it was 65 nM.
Consider `N[C@@H](Cn1cc(F)c(=O)[nH]c1=O)C(=O)O`, for which the Ki at Glutamate receptor 4 was 305 nM; at Glutamate receptor 1 [3] it was 14.7 nM.
